This note sets out measurements from paper PMC11218997, “Human cytomegalovirus deploys molecular mimicry to recruit VPS4A to sites of virus assembly” (PLOS Pathogens, 2024).

Where a SMILES comes first, the peptide text is derived from it.

This test concerns the target T1, human VPS4 MIT domain (residues 1–84) (Homo sapiens, UniProt Q9UN37).
T1 construct: The MIT domain (residues 1–84) of human VPS4A (UniProt Q9UN37); GST with human rhinovirus 3C cleavage site (N, cleaved yes); made in house; host or cells: Escherichia coli T7 Express lysY/Iq
T1 sequence (Q9UN37 1-84): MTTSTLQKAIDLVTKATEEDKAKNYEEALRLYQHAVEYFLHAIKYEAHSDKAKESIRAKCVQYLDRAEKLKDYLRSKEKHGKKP
The test is described as follows: Isothermal titration calorimetry, titrant into VPS4A MIT domain. The class given is binding. The settings on record: ITC, 25°C. The procedure:
Proteins were expressed in Escherichia coli T7 Express lysY/I^q cells (New England Biolabs) in 2×TY medium at 37°C to an OD600 of 0.8–1.2 before inducing protein expression by addition of 0.4 mM isopropyl β-D-thiogalactopyranoside (IPTG). Expression of GST-tagged pUL71 truncations was induced at 37°C for 3 h, whereas expression of GST-VPS4A MIT domain was induced at 22°C for 16 h. Cells were resuspended at 4°C in GSH lysis buffer (20 mM Tris pH 7.5, 300 mM NaCl, 0.5 mM MgCl2, 1.4 mM β-mercaptoethanol, 0.05% TWEEN-20) supplemented with 200–400 U bovine DNase I (Merck) and 200 μL EDTA-free protease inhibitor cocktail (Merck) before lysis using a TS series cell disruptor (Constant Systems) at 24 kpsi. Lysates were cleared by centrifugation (40,000×g, 30 min, 4°C) and incubated with glutathione Sepharose 4B (Cytiva) for 1 h at 4°C before extensive washing (≥ 20 column volumes) with GSH wash buffer (20 mM Tris pH 7.5, 300 mM NaCl, 1 mM DTT) and elution using wash buffer supplemented with 25 mM reduced L-glutathione. GST-tagged pUL71 truncations were subjected to size-exclusion chromatography (SEC) using a Superdex 200 16/600 column (Cytiva) equilibrated in GSH wash buffer. For GST-VPS4A MIT domain, the GST tag was removed by supplementing the pooled SEC fractions containing the protein of interest with 0.5 mM EDTA and incubating overnight at 4°C with 50 μg of GST-tagged human rhinovirus 3C protease. Free GST and uncleaved GST-VPS4A MIT domain were captured using glutathione Sepharose and the cleaved complex was subjected to SEC using an S75 10/300 GL column (Cytiva) equilibrated in 50 mM HEPES pH 8, 100 mM NaCl, 0.5 mM Tris(2-carboxyethyl)phosphine (TCEP).
Where necessary, proteins were exchanged into ITC buffer (50 mM HEPES pH 8, 100 mM NaCl, 0.5 mM TCEP) by SEC using Superdex 200 (GST-tagged titrants) or 75 (VPS4 MIT domain) 10/300 GL columns (Cytiva), or by extensive dialysis using tubing with a 3.5 kDa molecular weight cut-off (Pierce). Protein concentrations were estimated from A280 using extinction coefficients calculated from the protein sequence. Peptides encoding residues 166–181 of human CHMP6 or various truncations of HCMV pUL71 were purchased from Genscript at >95% purity and the dry peptides were resuspended in ITC buffer to the desired concentration. ITC experiments were performed at 25°C using an MicroCal PEAQ-ITC automated calorimeter (Malvern Panalytical). Titrants (GST-pUL71, GST-CHMP6 or peptides) were titrated into VPS4A MIT domain using either 19×2 μL or 12×3 μL injections (S1 Table). Data were analysed using the MicroCal PEAQ-ITC analysis software (Malvern Panalytical) and fitted using a one-site binding model.
S1 Table. Thermodynamic properties of the interactions with VPS4 MIT domain. As quantitated by isothermal titration calorimetry (ITC). Data for independent experiments are shown. For all, the cell contained human VPS4 MIT domain (residues 1-84) and pUL71 is from HCMV unless stated otherwise. –, no binding detected.

In the case of `CC[C@H](C)[C@H](NC(=O)[C@H](CCC(=O)O)NC(=O)[C@H](CCCNC(=N)N)NC(=O)[C@H](CCC(=O)O)NC(=O)[C@H](Cc1c[nH]cn1)NC(=O)[C@H](CC(N)=O)NC(=O)[C@@H](NC(=O)[C@@H]1CCCN1)[C@@H](C)O)C(=O)N[C@@H](CC(C)C)C(=O)N[C@@H](CC(=O)O)C(=O)N[C@@H](CC(C)C)C(=O)N[C@@H](CCSC)C(=O)N[C@@H](CCCNC(=N)N)C(=O)N[C@@H](Cc1c[nH]cn1)C(=O)N[C@@H](CO)C(=O)N1CCC[C@H]1C(=O)N[C@@H](CC(=O)O)C(=O)N[C@H](C(=O)N1CCC[C@H]1C(=O)N[C@@H](CCCNC(=N)N)C(=O)N[C@@H](CCC(=O)O)C(=O)N[C@@H](C)C(=O)N[C@H](C(=O)N[C@@H](CCSC)C(=O)N[C@@H](CO)C(=O)N1CCC[C@H]1C(=O)O)C(C)C)C(C)C` [pUL71 (300–325) peptide] (H-PTNHEREILDLMRHSPDVPREAVMSP-OH), the Kd (50 mM HEPES pH 8, 100 mM NaCl, 0.5 mM TCEP, one-site model, mean ± SD, n = 2–4 independent experiments) stood at 5.59 ± 0.34 µM.

`CC[C@H](C)[C@H](NC(=O)[C@H](CCC(N)=O)NC(=O)[C@@H](N)CCC(=O)O)C(=O)N[C@@H](CCC(=O)O)C(=O)N[C@@H](CC(C)C)C(=O)N1CCC[C@H]1C(=O)N[C@@H](CCC(=O)O)C(=O)N[C@H](C(=O)N1CCC[C@H]1C(=O)N[C@@H](CO)C(=O)N[C@@H](CCC(=O)O)C(=O)N1CCC[C@H]1C(=O)N[C@@H](CC(C)C)C(=O)N1CCC[C@H]1C(=O)N[C@@H](CCC(=O)O)C(=O)N[C@@H](CCCCN)C(=O)O)C(C)C` [CHMP6 peptide] (H-EQIELPEVPSEPLPEK-OH; N-terminus and C-terminus assumed): where the note is “pH 8, mean ± SD, n = 2–4”, the “-TΔS” value is given as -5.52 ± 0.58 kcal/mol, the “N (stoichiometry)” value turned out to be 1.02 ± 0.17, the ΔG is reported as -6.85 ± 0.38 kcal/mol and the ΔH is reported as -1.33 ± 0.51 kcal/mol. Further, where the note is “replicate 1, pH 8”, the “-T∆S” value is listed as -6.36 kcal/mol, the “N (sites)” value is 1, the “∆G” value is given as -7.2 kcal/mol and the “∆H” value is recorded as -0.844 kcal/mol. In addition, under “replicate 2, pH 8”, the “-T∆S” value is -5.11 kcal/mol, the “N (sites)” value is 0.79, the “∆G” value is -7.15 kcal/mol and the “∆H” value was -2.04 kcal/mol. Besides, under “replicate 3, pH 8”, the “-T∆S” value is -5.14 kcal/mol, the “N (sites)” value is on record as 1.1, the “∆G” value is reported as -6.46 kcal/mol and the “∆H” value is given as -1.32 kcal/mol. For the same compound, where the note is “replicate 4, pH 8”, the “-T∆S” value is -5.46 kcal/mol, the “N (sites)” value worked out at 1.17, the “∆G” value is listed as -6.57 kcal/mol and the “∆H” value was -1.1 kcal/mol.

On to “GST-CHMP6: GST-tagged CHMP6 MIM2 motif (residues 168–181)”, for which, for the setting “pH 8, mean ± SD, n = 2–4”, the “-TΔS” value is -4.81 ± 0.62 kcal/mol and the ΔG was -7.18 ± 0.12 kcal/mol. Under “replicate 1, pH 8”, the “-T∆S” value was -5.25 kcal/mol, binding was characterised by a dissociation constant (Kd) of 4.76 µM, the “N (sites)” value is reported as 0.786 and the “∆G” value is recorded as -7.26 kcal/mol. Besides, the “∆H” value (replicate 1, pH 8) is -2.02 kcal/mol. Moreover, under “replicate 2, pH 8”, the “-T∆S” value was -4.37 kcal/mol, the Kd was 6.32 µM, the “N (sites)” value came out at 0.894 and the “∆G” value was -7.09 kcal/mol. The “∆H” value (replicate 2, pH 8) is -2.72 kcal/mol.
